We go through 14 molecules from PubChem BioAssay AID328 (DTP/NCI, 2004).

Structures are written as SMILES. Where “and” joins values, the source holds several entries; their conditions need not be identical. Identical values can stand only once. Toxic doses and inconclusive results are not listed.

The test relates to BDF1 mice, P388 leukemia ip, median survival T/C. In words: NCI In Vivo Anticancer Drug Screen. Data for tumor model P388 Leukemia (intraperitoneal) in B6D2F1 (BDF1) mice. The following applies: endpoint: median survival time, higher = longer survival. Put shortly: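 Vehicle-dosed animals serve as the reference; survival of compound-dosed, tumour-implanted mice is divided by it.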

The mark [1] stands for this setting: dose: 50.0 mg/kg/injection, schedule: Q04DX003 (ip), vehicle: saline with Tween-80.
The mark [2] stands for this setting: dose: 100.0 mg/kg/injection, schedule: Q04DX003 (ip), vehicle: saline with Tween-80.
[3] abbreviates: dose: 200.0 mg/kg/injection, schedule: Q04DX003 (ip), vehicle: saline with Tween-80.
[4] abbreviates: dose: 100.0 mg/kg/injection, schedule: Q04DX003 (ip), vehicle: Klucel (hydroxypropylcellulose) (HPC).
Where [5] appears, read: dose: 200.0 mg/kg/injection, schedule: Q04DX003 (ip), vehicle: Klucel (hydroxypropylcellulose) (HPC).
Where [6] appears, read: dose: 400.0 mg/kg/injection, schedule: Q04DX003 (ip), vehicle: Klucel (hydroxypropylcellulose) (HPC).
The mark [7] stands for this setting: dose: 12.5 mg/kg/injection, schedule: Q01DX009 (ip), vehicle: saline with Tween-80.
[8] abbreviates: dose: 25.0 mg/kg/injection, schedule: Q01DX009 (ip), vehicle: saline with Tween-80.
Where [9] appears, read: dose: 50.0 mg/kg/injection, schedule: Q01DX009 (ip), vehicle: saline with Tween-80.
The mark [10] stands for this setting: dose: 100.0 mg/kg/injection, schedule: Q01DX009 (ip), vehicle: saline with Tween-80.
[11] abbreviates: dose: 200.0 mg/kg/injection, schedule: Q01DX009 (ip), vehicle: saline with Tween-80.

Consider `N[C@H](C(=O)O)[C@@H]1CC(Cl)=NO1`, for which the T/C is 150 % of control (dose: 0.39 mg/kg/injection, schedule: Q01DX009 (ip), vehicle: saline); 175 % of control (dose: 0.78 mg/kg/injection, schedule: Q01DX009 (ip), vehicle: saline); 183 % of control (dose: 1.0 mg/kg/injection, schedule: Q01DX009 (ip), vehicle: saline); 175 % of control (dose: 1.56 mg/kg/injection, schedule: Q01DX009 (ip), vehicle: saline); 193 % of control (dose: 2.0 mg/kg/injection, schedule: Q01DX009 (ip), vehicle: saline); 95 % of control (dose: 3.12 mg/kg/injection, schedule: Q01DX009 (ip), vehicle: saline). Moreover, the T/C is 113 % of control (dose: 3.12 mg/kg/injection, schedule: Q04DX003 (ip), vehicle: saline); 220 % of control (dose: 4.0 mg/kg/injection, schedule: Q01DX009 (ip), vehicle: saline); 90 % of control (dose: 6.25 mg/kg/injection, schedule: Q01DX009 (ip), vehicle: saline); 250 % of control (dose: 8.0 mg/kg/injection, schedule: Q01DX009 (ip), vehicle: saline); 174 % of control (dose: 12.5 mg/kg/injection, schedule: Q04DX003 (ip), vehicle: saline); 118 % of control (dose: 16.0 mg/kg/injection, schedule: Q01DX009 (ip), vehicle: saline). For the same molecule, the T/C reads like this: (dose: 21.6 mg/kg/injection, schedule: Q04DX003 (ip), vehicle: saline) 169 % of control; (dose: 25.0 mg/kg/injection, schedule: Q04DX003 (ip), vehicle: saline) 220 % of control; (dose: 32.0 mg/kg/injection, schedule: Q01DX009 (ip), vehicle: saline) 91 % of control; (dose: 50.0 mg/kg/injection, schedule: Q04DX003 (ip), vehicle: saline) 231 % of control; (dose: 50.0 mg/kg/injection, schedule: Q04DX003 (ip), vehicle: water) 117 % of control; (dose: 100.0 mg/kg/injection, schedule: Q04DX003 (ip), vehicle: saline) 101 % of control. Also, the T/C (dose: 200.0 mg/kg/injection, schedule: Q04DX003 (ip), vehicle: water) was 209 % of control and the T/C (dose: 400.0 mg/kg/injection, schedule: Q04DX003 (ip), vehicle: water) was 196 % of control.
In the case of `CC(C)CC(C(N)=O)c1ccccc1` (stereo not given), the T/C was 100 % of control (dose: 100.0 mg/kg/injection, schedule: Q01DX001 (ip), vehicle: saline with Tween-80) and 104 % of control (dose: 200.0 mg/kg/injection, schedule: Q01DX001 (ip), vehicle: saline with Tween-80).
As to `O/N=C/c1ccccc1O.O/N=C/c1ccccc1O.[Cu]`, the T/C (dose: 6.25 mg/kg/injection, schedule: Q04DX003 (ip), vehicle: saline with Tween-80) is 118 % of control; the T/C (dose: 12.5 mg/kg/injection, schedule: Q04DX003 (ip), vehicle: saline with Tween-80) was 109 % of control; the T/C (dose: 16.5 mg/kg/injection, schedule: Q04DX003 (ip), vehicle: saline with Tween-80) was 114 % of control; the T/C (dose: 25.0 mg/kg/injection, schedule: Q04DX003 (ip), vehicle: saline with Tween-80) is 123 % of control.
On to `O=C(O)/C(Br)=C/c1ccccc1`, for which the T/C is 100 % of control under setting [1], 109 % of control under setting [2] and 95 % of control under setting [3].
For `CCCCCCCCC(=O)CCC`, the T/C was 100 % of control (dose: 50.0 mg/kg/injection, schedule: Q04DX003 (ip), vehicle: Klucel (hydroxypropylcellulose) (HPC)); 109 % of control under setting [4]; 100 % of control under setting [5]; 87 % of control under setting [6].
`O=N/N=c1/sc2ccccc2n1-c1ccccc1`: the T/C is 100 % of control (dose: 25.0 mg/kg/injection, schedule: Q01DX001 (ip), vehicle: saline sonified); 104 % of control (dose: 50.0 mg/kg/injection, schedule: Q01DX001 (ip), vehicle: saline sonified); 100 % of control (dose: 100.0 mg/kg/injection, schedule: Q01DX001 (ip), vehicle: saline sonified).
Consider `Nc1ccc(O)c2ncccc12`, for which the T/C was 115 % of control (dose: 7.5 mg/kg/injection, schedule: Q01DX010 (ip), vehicle: saline) and 110 % of control (dose: 15.0 mg/kg/injection, schedule: Q01DX010 (ip), vehicle: saline).
`Cc1cc(N(c2c(Cl)c(Cl)c(NS(=O)(=O)c3ccccc3)c(Cl)c2Cl)S(=O)(=O)c2ccccc2)cc(C)c1N`: the T/C runs as follows: under setting [4], 96 % of control; (dose: 200.0 mg/kg/injection, schedule: Q01DX009 (ip), vehicle: Klucel (hydroxypropylcellulose) (HPC)) 92 % of control; under setting [5], 96 % of control; (dose: 400.0 mg/kg/injection, schedule: Q01DX009 (ip), vehicle: Klucel (hydroxypropylcellulose) (HPC)) 96 % of control; under setting [6], 88 % of control.
For the molecule `NC1=CC(=O)c2ccccc2C1=O`, the T/C (dose: 6.25 mg/kg/injection, schedule: Q01DX009 (ip), vehicle: saline with Tween-80) was 101 % of control; the T/C under setting [7] was 113 % of control; the T/C under setting [8] was 103 % of control; the T/C under setting [9] is 103 % of control.
Turning to `CCC/C(C)=N/Nc1ccccn1`, the T/C is, setting by setting: (dose: 12.5 mg/kg/injection, schedule: Q01DX009 (ip), vehicle: Klucel (hydroxypropylcellulose) (HPC)) 105 % of control; under setting [7], 95 % of control; (dose: 25.0 mg/kg/injection, schedule: Q01DX009 (ip), vehicle: Klucel (hydroxypropylcellulose) (HPC)) 95 % of control and 110 % of control; under setting [8], 100 % of control; (dose: 50.0 mg/kg/injection, schedule: Q01DX009 (ip), vehicle: Klucel (hydroxypropylcellulose) (HPC)) 100 % of control and 120 % of control; under setting [9], 91 % of control and 118 % of control. Also, under “dose: 50.0 mg/kg/injection, schedule: Q01DX009 (ip), vehicle: saline”, the T/C was 120 % of control.
As to `COCC1OC(OC2OCC3OC4(OCC(O)(C(C)OC)C5OCOC54)OC3C2OC)C(OC)C(O)C1OC1OC(C)C(OC)C(OC2OC(C)C3OC4(CC(O)C(OC5CC(OC6CC(C)([N+](=O)[O-])C(OC)C(C)O6)C(OC(=O)c6c(C)c(Cl)c(O)c(Cl)c6OC)C(C)O5)C(C)O4)OC3(C)C2O)C1O` (stereo not given), for the setting “dose: 12.5 mg/kg/injection, schedule: Q01DX009 (ip), vehicle: saline”, the T/C was 115 % of control.
Take `O=C(O)C(CSC(c1ccccc1)(c1ccccc1)c1ccccc1)N=Cc1ccccc1O` (stereo not given): the T/C is, setting by setting: under setting [9], 159 % of control; (dose: 66.0 mg/kg/injection, schedule: Q04DX003 (ip), vehicle: saline with Tween-80) 104 % of control; under setting [10], 186 % of control; under setting [2], 190 % of control; (dose: 150.0 mg/kg/injection, schedule: Q04DX003 (ip), vehicle: saline with Tween-80) 177 % of control; under setting [11], 272 % of control.
Turning to `O=C1C=CC(=O)N1CO`, the T/C (dose: 0.62 mg/kg/injection, schedule: Q04DX003 (ip), vehicle: saline) was 100 % of control; the T/C (dose: 1.25 mg/kg/injection, schedule: Q01DX009 (ip), vehicle: saline) was 109 % of control; the T/C (dose: 1.25 mg/kg/injection, schedule: Q04DX003 (ip), vehicle: saline) is 95 % of control; the T/C (dose: 2.5 mg/kg/injection, schedule: Q01DX009 (ip), vehicle: saline) was 118 % of control; the T/C (dose: 2.5 mg/kg/injection, schedule: Q04DX003 (ip), vehicle: saline) is 90 % of control; the T/C (dose: 3.6 mg/kg/injection, schedule: Q04DX003 (ip), vehicle: saline) was 100 % of control. Also, the T/C is 104 % of control (dose: 5.6 mg/kg/injection, schedule: Q04DX003 (ip), vehicle: saline) and 104 % of control (dose: 8.4 mg/kg/injection, schedule: Q04DX003 (ip), vehicle: saline).
Turning to `Nc1c2ccccc2cc2ccccc12`, the T/C was 108 % of control under setting [9]; 108 % of control under setting [1]; 108 % of control under setting [10]; 95 % of control under setting [2]; 113 % of control under setting [11]; 91 % of control under setting [3].
